ChEMBL document CHEMBL4622963, “Optimization of Nicotinamides as Potent and Selective IRAK4 Inhibitors with Efficacy in a Murine Model of Psoriasis” (ACS Med Chem Lett, 2020)

Assays:
[1] = target: T1, Interleukin-1 receptor-associated kinase 4 (Mus musculus) (UniProt Q8R4K2); experiment: In vivo Inhibition of IRAK4 in LTA-treated BALB/c mouse assessed as suppression of IL-6 level in serum at 3 mg/kg by ELISA relative to control; type: functional, organism-based
T1 sequence (whole entry): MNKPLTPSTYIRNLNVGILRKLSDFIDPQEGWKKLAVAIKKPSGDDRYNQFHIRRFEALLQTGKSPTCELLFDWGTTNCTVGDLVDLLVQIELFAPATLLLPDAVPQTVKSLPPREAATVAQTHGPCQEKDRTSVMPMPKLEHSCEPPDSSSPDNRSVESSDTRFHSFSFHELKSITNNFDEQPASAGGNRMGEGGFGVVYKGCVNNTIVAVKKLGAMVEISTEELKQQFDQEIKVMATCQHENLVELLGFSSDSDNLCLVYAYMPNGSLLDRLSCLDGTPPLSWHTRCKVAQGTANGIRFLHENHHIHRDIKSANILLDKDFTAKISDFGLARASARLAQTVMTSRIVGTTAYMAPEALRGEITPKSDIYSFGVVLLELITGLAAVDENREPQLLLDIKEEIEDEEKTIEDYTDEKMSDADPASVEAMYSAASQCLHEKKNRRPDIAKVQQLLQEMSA

Mus musculus [2] = species on record: Mus musculus; experiment: animal or person; settings: C57BL/6, po, 144 h, read-out: INH
[3] = Drug uptake in imiquimod-induced C57BL/6 mouse model of psoriasis at 3 mg/kg, po dosed via gavage twice daily and measured after 8 hrs by LC-MS analysis; type: ADME, organism-based; settings: in vivo, read-out: Drug uptake
[4] = Toxicity in po dosed imiquimod-induced C57BL/6 mouse model of psoriasis assessed as drug tolerability; type: organism-based; settings: in vivo
[5] = target: T2, Interleukin-1 receptor-associated kinase 4 (Homo sapiens, UniProt Q9NWZ3); experiment: Inhibition of IRAK4 in human PBMC assessed as inhibition of LTA-induced IL-6 production preincubated for 30 mins followed by LTA-stimulation and measured after 5 hrs by ELISA; type: cell-based
T2 sequence (Q9NWZ3 whole entry): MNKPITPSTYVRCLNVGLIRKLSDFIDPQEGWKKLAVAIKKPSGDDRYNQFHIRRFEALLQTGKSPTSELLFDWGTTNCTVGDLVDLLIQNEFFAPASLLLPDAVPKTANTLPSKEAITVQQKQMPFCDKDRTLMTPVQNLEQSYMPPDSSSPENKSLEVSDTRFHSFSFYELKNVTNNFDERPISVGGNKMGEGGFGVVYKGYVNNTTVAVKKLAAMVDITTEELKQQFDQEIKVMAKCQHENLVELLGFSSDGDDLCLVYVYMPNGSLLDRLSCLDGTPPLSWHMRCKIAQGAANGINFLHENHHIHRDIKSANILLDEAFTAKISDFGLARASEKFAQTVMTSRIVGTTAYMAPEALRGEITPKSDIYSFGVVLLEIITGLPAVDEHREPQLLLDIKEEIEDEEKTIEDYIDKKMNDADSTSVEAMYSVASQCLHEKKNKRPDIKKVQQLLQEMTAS

[6] = target: TRAF2 and NCK-interacting protein kinase (Homo sapiens, UniProt Q9UKE5); experiment: Inhibition of human wild type partial length TNIK (D4-K311 residues) expressed in bacterial expression system
Mus musculus [7] = experiment: Protection against po dosed imiquimod-induced psoriasis in C57BL/6 mouse assessed as reduction in clinical signs of psoriasis administered via gavage twice daily and measured on day 6; type: functional, organism-based
[8] = target: T1, Interleukin-1 receptor-associated kinase 4 (Mus musculus); experiment: In vivo Inhibition of IRAK4 in LTA-treated BALB/c mouse assessed as suppression of IL-6 level in serum at 0.3 mg/kg by ELISA relative to control; type: functional, organism-based
[9] = target: Tyrosine-protein kinase Lck (Homo sapiens, UniProt P06239); experiment: Inhibition of N-terminal His6-tagged human full length recombinant LCK expressed in baculovirus infected Sf21 cells
[10] = target: T1, Interleukin-1 receptor-associated kinase 4 (Mus musculus); experiment: In vivo Inhibition of IRAK4 in LTA-treated BALB/c mouse assessed as suppression of IL-6 level in serum at 10 mg/kg by ELISA relative to control; type: functional, organism-based
[11] = Drug uptake in imiquimod-induced C57BL/6 mouse model of psoriasis at 3 mg/kg, po dosed via gavage twice daily and measured after 2 hrs by LC-MS analysis; type: ADME, organism-based; settings: in vivo, read-out: Drug uptake
Homo sapiens = species on record: Homo sapiens; experiment: Selectivity index, ratio of IC50 for recombinant N-terminal GST-tagged human cKit (544 to end residues) expressed in baculovirus infected Sf21 cells to IC50 for IRAK4 (unknown origin)
[12] = Drug uptake in imiquimod-induced C57BL/6 mouse model of psoriasis at 10 mg/kg, po dosed via gavage twice daily and measured after 8 hrs by LC-MS analysis; type: ADME, organism-based; settings: in vivo, read-out: Drug uptake
Mus musculus [13] = species on record: Mus musculus; experiment: animal or person; settings: C57BL/6, po, 144 h, read-out: INH; remark: listed apart in the source
[14] = target: T3, Interleukin-1 receptor-associated kinase 3 (Homo sapiens, UniProt Q9Y616); experiment: Inhibition of human wild type partial length IRAK3 (147 to 596 residues) expressed in bacterial expression system
T3 sequence (Q9Y616 whole entry): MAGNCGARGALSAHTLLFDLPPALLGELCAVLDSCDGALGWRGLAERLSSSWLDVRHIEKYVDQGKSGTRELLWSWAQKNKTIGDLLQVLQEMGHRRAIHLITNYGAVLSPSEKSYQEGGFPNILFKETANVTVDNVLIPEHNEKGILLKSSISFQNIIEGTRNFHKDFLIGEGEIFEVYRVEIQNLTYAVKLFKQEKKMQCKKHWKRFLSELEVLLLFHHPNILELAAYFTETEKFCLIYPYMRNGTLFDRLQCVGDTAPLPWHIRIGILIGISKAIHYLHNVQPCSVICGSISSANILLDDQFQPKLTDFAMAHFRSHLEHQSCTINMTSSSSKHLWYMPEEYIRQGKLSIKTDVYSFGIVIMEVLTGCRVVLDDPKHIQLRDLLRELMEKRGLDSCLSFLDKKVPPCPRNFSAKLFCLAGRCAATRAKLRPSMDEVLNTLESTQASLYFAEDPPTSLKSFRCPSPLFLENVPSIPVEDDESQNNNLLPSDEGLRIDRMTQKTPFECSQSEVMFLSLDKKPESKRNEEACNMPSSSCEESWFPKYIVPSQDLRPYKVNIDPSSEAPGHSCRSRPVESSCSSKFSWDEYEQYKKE

[15] = target: Mast/stem cell growth factor receptor Kit (Homo sapiens, UniProt P10721); experiment: Inhibition of recombinant N-terminal GST-tagged human cKit (544 to end residues) expressed in baculovirus infected Sf21 cells
[16] = Drug uptake in imiquimod-induced C57BL/6 mouse model of psoriasis at 0.3 mg/kg, po dosed via gavage twice daily and measured after 2 hrs by LC-MS analysis; type: ADME, organism-based; settings: in vivo, read-out: Drug uptake
[17] = Drug uptake in imiquimod-induced C57BL/6 mouse model of psoriasis at 1 mg/kg, po dosed via gavage twice daily and measured after 8 hrs by LC-MS analysis; type: ADME, organism-based; settings: in vivo, read-out: Drug uptake
[18] = Stability in human liver microsomes assessed as parent compound remaining; type: ADME, Microsome
[19] = AUC in mouse at 5 mg/kg, po via gavage measured up to 24 hrs by LC-MS analysis; type: ADME, organism-based; set-up: time < 24 hr, dose 5 mg/kg, route oral; settings: in vivo

Sequence of Mast/stem cell growth factor receptor Kit (P10721 whole entry): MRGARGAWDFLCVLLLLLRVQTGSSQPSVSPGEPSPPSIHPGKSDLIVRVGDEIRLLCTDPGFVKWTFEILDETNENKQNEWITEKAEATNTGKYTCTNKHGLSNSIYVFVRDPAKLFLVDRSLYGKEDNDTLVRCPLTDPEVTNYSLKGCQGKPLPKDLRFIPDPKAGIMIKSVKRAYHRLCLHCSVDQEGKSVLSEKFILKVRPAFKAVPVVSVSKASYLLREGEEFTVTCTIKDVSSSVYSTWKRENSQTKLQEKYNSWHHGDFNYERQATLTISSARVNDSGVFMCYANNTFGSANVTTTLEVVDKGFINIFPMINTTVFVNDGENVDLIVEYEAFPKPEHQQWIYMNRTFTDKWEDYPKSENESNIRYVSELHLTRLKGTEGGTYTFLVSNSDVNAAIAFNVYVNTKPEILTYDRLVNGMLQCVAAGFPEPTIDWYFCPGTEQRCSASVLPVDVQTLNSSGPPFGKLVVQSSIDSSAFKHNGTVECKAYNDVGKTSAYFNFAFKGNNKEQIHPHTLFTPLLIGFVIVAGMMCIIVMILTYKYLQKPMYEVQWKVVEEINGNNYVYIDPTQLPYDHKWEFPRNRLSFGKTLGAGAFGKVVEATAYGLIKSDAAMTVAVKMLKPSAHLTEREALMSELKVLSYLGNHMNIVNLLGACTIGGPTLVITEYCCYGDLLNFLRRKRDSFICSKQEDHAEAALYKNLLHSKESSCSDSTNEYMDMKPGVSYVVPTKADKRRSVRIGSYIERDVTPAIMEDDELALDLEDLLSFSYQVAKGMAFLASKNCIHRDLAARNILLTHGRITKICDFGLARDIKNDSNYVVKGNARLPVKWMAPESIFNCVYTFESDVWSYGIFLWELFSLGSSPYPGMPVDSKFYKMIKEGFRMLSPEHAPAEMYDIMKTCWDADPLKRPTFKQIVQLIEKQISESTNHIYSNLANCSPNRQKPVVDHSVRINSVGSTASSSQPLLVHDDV
Sequence of Tyrosine-protein kinase Lck (P06239 whole entry): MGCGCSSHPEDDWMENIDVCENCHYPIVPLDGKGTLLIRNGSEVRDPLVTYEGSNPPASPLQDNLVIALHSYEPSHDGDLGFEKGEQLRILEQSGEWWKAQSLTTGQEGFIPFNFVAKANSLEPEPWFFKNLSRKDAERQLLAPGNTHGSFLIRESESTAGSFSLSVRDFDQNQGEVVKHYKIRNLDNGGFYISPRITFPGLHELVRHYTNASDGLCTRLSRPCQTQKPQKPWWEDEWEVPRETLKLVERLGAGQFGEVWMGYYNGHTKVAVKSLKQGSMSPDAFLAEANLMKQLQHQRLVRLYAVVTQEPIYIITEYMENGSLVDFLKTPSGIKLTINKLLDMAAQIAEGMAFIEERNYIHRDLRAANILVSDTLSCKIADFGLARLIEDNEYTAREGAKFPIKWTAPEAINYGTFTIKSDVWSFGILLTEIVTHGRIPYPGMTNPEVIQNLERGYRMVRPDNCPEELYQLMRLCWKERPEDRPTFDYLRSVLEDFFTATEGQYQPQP
Sequence of TRAF2 and NCK-interacting protein kinase (Q9UKE5 whole entry, the tested form may be a part): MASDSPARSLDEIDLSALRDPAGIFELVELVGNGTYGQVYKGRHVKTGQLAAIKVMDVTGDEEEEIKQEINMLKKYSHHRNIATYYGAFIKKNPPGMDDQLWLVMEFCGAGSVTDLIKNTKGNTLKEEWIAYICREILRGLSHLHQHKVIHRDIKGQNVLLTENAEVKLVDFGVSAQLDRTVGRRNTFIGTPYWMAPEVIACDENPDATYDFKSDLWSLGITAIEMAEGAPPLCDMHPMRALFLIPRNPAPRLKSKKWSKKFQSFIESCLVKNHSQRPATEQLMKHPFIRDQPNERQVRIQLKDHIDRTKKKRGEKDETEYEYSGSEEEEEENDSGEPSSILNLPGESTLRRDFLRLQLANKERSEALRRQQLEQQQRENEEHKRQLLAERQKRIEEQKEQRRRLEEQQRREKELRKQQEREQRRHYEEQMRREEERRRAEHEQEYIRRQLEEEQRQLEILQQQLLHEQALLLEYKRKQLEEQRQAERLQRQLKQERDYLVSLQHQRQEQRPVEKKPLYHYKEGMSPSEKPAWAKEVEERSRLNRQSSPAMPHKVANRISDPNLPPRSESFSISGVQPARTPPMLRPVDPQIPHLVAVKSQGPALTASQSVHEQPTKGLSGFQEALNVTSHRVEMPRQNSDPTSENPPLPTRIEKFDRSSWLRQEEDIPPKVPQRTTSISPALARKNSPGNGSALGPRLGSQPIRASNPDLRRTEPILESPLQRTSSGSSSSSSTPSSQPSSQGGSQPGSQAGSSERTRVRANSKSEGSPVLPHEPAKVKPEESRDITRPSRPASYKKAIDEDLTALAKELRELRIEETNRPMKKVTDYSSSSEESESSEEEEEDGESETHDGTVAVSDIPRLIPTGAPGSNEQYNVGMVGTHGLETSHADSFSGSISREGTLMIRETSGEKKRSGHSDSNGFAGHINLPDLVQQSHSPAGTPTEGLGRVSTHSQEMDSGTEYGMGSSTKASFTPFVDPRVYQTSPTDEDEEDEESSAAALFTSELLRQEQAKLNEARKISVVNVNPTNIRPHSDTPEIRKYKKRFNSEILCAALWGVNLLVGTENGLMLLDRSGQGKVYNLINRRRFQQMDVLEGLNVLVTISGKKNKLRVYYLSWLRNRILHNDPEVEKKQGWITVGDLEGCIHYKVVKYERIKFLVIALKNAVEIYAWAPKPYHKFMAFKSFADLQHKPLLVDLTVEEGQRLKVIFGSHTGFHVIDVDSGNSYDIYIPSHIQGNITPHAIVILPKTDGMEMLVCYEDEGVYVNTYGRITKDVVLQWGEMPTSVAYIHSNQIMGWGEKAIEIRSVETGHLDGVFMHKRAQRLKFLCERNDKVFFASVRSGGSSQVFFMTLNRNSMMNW

Structure (SMILES): CC(C)Nc1cc(Nc2nc3ccnn3cc2F)ncc1C(=O)NC[C@@H](F)C(C)(C)O
- inhibition [1]: 87%
- inhibition in vivo at 1 mg/kg (Mus musculus [2]): 27%
- concentration at 8 h [3]: 0.031 µM
- Activity [4]: Non-Toxic
- IC50 [5]: 0.37 µM
- IC50 [6]: 0.13 µM
- Activity (Mus musculus [7]): Dose-dependent effect
- inhibition [8]: 72%
- IC50 [9]: > 2 µM
- inhibition [10]: 93%
- concentration at 2 h [11]: 1.95 µM
- Ratio IC50 (Homo sapiens): > 590
- concentration at 8 h [12]: 0.494 µM
- inhibition in vivo at 3 mg/kg (Mus musculus [13]): 41%
- IC50 [14]: 0.76 µM
- IC50 [15]: > 2 µM
- concentration at 2 h [16]: 0.042 µM
- concentration at 8 h [17]: 0.012 µM
- Stability [18]: 93%
- AUC at 24 h [19]: 2400 nM·h
